Experimental data: patent US20240252677A1, “ONE-COMPONENT DELIVERY SYSTEM FOR NUCLEIC ACIDS” (The Trustees of the University of Pennsylvania, priority 2021, published 2024)
Read-outs that look alike come from different tables or passages of the source.

Columns and labels:
[1] = system: BALB/c mice; conditions: cited from earlier work
[2] = system: HEK293T cells; conditions: Table 16, IAJDs marked a (Zhang et al., J. Am. Chem. Soc. 2021); HEK 293T cells, 125 ng/well, n=3; cited from earlier work
[3] = Table 16, IAJDs marked a (Zhang et al., J. Am. Chem. Soc. 2021); IAJD 4 mg/mL, Luc-mRNA 0.10 mg/mL, acetate buffer 10 mM pH 4.0; cited from earlier work
[4] = Stability of DNPs by DLS after storage at 5° C.; assay type: physicochemical; design: key: Excellent: the original sizes and distribution remains almost the same after storage; Good: the original relatively big sizes became smaller or broad size distribution became narrower; Not stable: the original relatively big sizes or broad size distribution remained almost the similar level, or the original relatively small sizes became bigger or narrow size distribution became broader; conditions: storage time 2 days; CIAJD 4.0 mg/mL; CLuc-mRNA 0.1 mg/mL; acetate buffer pH 4.0
Protocol: The stability of the DNPs as assayed by DLS. All the samples are prepared in acetate buffer. The stabilities of the constructs were ranked: Excellent (in bold)—the original sizes and distribution remains almost the same after storage; Good—the original relatively big sizes became smaller or broad size distribution became narrower; Not stable—the original relatively big sizes or broad size distribution remained almost the similar level, or the original relatively small sizes became bigger or narrow size distribution became broader.

[5] = Serum stability of DNPs, dimensions in 1% fetal bovine serum by DLS; assay type: physicochemical
Protocol: Sample preparation: injected 25 μL ethanol stock solution of IAJD125/155 (80 mg/mL) into the mixture of 462.5 μL acetate buffer (10 mM, pH 4.0) and 12.5 μL Luc-mRNA (4.0 mg/mL in water), followed by vortex for 5 seconds.
Final composition of DNP solution: IAJD125/155 (4.0 mg/mL)+Luc-mRNA (0.1 mg/mL) in 500 μL acetate buffer. The dimension of assemblies in solution was checked by DLS.
DNPs in 1% Serum: Serum (5.5 μL)+[500 μL solution of IAJD (4.0 mg/mL) and Luc-mRNA (0.1 mg/mL].

[6] = Table 18, symmetric IAJDs, results available in the literature
[7] = Table 20, corresponding symmetric IAJDs (literature per Table 18)
[8] = DNPs in acetate buffer (pH 4.0), no serum, IAJD 4.0 mg/mL + Luc-mRNA 0.1 mg/mL

Molecule | In vivo activity (total flux, p/s) [1, 6] | In vivo activity (total flux, p/s) [1, 7] | Luminescence [2] | PDI [3] | Size (d, nm) [3] [nm] | further results
CCCCCCCCCCCCCCCCCCOc1cc(COC(=O)CCCN2CCN(CCO)CC2)cc(OCCCCCCCCCCCCCCCCCC)c1 [IAJD 99, 3,5-Bis(octadecyloxy)benzyl 4-(4-(2-hydroxyethyl)piperazin-1-yl)butanoate] | 4.49 × 10^6 p/s | 4.49 × 10^6 p/s |  |  |  | 
CCCCCCCCCCCCCCCCOc1cc(COC(=O)CCCN2CCN(C)CC2)cc(OCCCCCCCCCCCCCCCC)c1 [IAJD 75, 3,5-Bis(hexadecyloxy)benzyl 4-(4-methylpiperazin-1-yl)butanoate] | 3.37 × 10^7 p/s | 3.37 × 10^7 p/s |  |  |  | 
CCCCCCCCCCCCCCOc1cc(COC(=O)CCCN2CCN(C)CC2)cc(OCCCCCCCCCCC)c1 [IAJD 105, 3-(Tetradecyloxy)-5-(undecyloxy)benzyl 4-(4-methylpiperazin-1-yl)butanoate] |  |  | 85 | 0.294 | 94 | 
CCCCCCCCCCCCCCCCCCOc1cc(COC(=O)CCCN2CCN(C)CC2)cc(OCCCCCCCCCCC)c1 [IAJD 81, 3-(Octadecyloxy)-5-(undecyloxy)benzyl 4-(4-methylpiperazin-1-yl)butanoate] |  |  | 206,161 | 0.287 | 111 | 
CCCCCCCCCCCCCCCCCCOc1cc(COC(=O)CCCN2CCN(C)CC2)cc(OCCCCCCCCCCCCCCCCCC)c1 [IAJD 98, 3,5-Bis(octadecyloxy)benzyl 4-(4-methylpiperazin-1-yl)butanoate] | 2.06 × 10^6 p/s | 2.06 × 10^6 p/s |  |  |  | 
Diheptyl 5,5′-((5-(((4-(4-methylpiperazin-1-yl)butanoyl)oxy)methyl)-1,3-phenylene)bis(oxy)) dipentanoate [IAJD 85] |  |  |  |  |  | Ranking of stability [4]: Excellent
CCCCCCCCOc1cc(COC(=O)CCCN2CCN(C)CC2)cc(OCCCCCCCC)c1 [IAJD 88, 3,5-Bis(octyloxy)benzyl 4-(4-methylpiperazin-1-yl)butanoate] | 2.34 × 10^6 p/s |  |  |  |  | 
CCCCCCCCCCCCCCCCOc1cc(COC(=O)CCCN2CCN(C)CC2)cc(OCCCCCCCCCCC)c1 [IAJD 86, 3-(Hexadecyloxy)-5-(undecyloxy)benzyl 4-(4-methylpiperazin-1-yl)butanoate] |  |  | 47,066 | 0.234 | 91 | 
CCCCCCCCCCCOc1cc(COC(=O)c2cc(OCCOCCOCCCC(=O)CCCN3CCCCC3)c(OCCOCCOCCOCc3ccccc3)c(OCCOCCOCCOC(=O)CCCN3CCCCC3)c2)cc(OCC(CC)CCCC)c1 (centres unmarked) [IAJD 155] |  |  |  |  |  | PDI ([5]; DNPs in 1% Serum, t = 0 min): 0.186; Size (nm) ([5]; DNPs in 1% Serum, t = 0 min): 93 nm; PDI ([5]; DNPs in 1% Serum, t = 10 min): 0.171; Size (nm) ([5]; DNPs in 1% Serum, t = 10 min): 101 nm; PDI ([5]; DNPs in 1% Serum, t = 20 min): 0.186; Size (nm) ([5]; DNPs in 1% Serum, t = 20 min): 105 nm; PDI ([5]; DNPs in 1% Serum, t = 30 min): 0.173; Size (nm) ([5]; DNPs in 1% Serum, t = 30 min): 107 nm; PDI ([5]; DNPs in 1% Serum, t = 40 min): 0.161; Size (nm) ([5]; DNPs in 1% Serum, t = 40 min): 108 nm; PDI ([5]; DNPs in 1% Serum, t = 50 min): 0.174; Size (nm) ([5]; DNPs in 1% Serum, t = 50 min): 111 nm; PDI ([5]; DNPs in 1% Serum, t = 60 min): 0.149; Size (nm) ([5]; DNPs in 1% Serum, t = 60 min): 108 nm; PDI [5, 8]: 0.256; Size (nm) [5, 8]: 83 nm
CCCCCCCCOc1cc(COC(=O)CCCN2CCN(CCO)CC2)cc(OCCCCCCCC)c1 [IAJD 89] | 5.92 × 10^7 p/s |  |  |  |  | 
CCCCCCCCCCCCOc1cc(COC(=O)CCCN2CCN(CCO)CC2)cc(OCCCCCCCCCCCC)c1 [IAJD 71, 3,5-Bis(dodecyloxy)benzyl 4-(4-(2-hydroxyethyl)piperazin-1-yl)butanoate] | 3.79 × 10^7 p/s | 3.79 × 10^7 p/s | 473,548 | 0.451 | 237 | 
CCCCCCCCCCCCCCOc1cc(COC(=O)CCCN2CCN(CCO)CC2)cc(OCCCCCCCCCCC)c1 [IAJD 125, 3-(Tetradecyloxy)-5-(undecyloxy)benzyl 4-(4-(2-hydroxyethyl)piperazin-1-yl)butanoate] |  |  |  |  |  | PDI ([5]; DNPs in 1% Serum, t = 0 min): 0.234; Size (nm) ([5]; DNPs in 1% Serum, t = 0 min): 207 nm; PDI ([5]; DNPs in 1% Serum, t = 10 min): 0.290; Size (nm) ([5]; DNPs in 1% Serum, t = 10 min): 206 nm; PDI ([5]; DNPs in 1% Serum, t = 20 min): 0.303; Size (nm) ([5]; DNPs in 1% Serum, t = 20 min): 199 nm; PDI ([5]; DNPs in 1% Serum, t = 30 min): 0.256; Size (nm) ([5]; DNPs in 1% Serum, t = 30 min): 197 nm; PDI ([5]; DNPs in 1% Serum, t = 40 min): 0.284; Size (nm) ([5]; DNPs in 1% Serum, t = 40 min): 200 nm; PDI ([5]; DNPs in 1% Serum, t = 50 min): 0.339; Size (nm) ([5]; DNPs in 1% Serum, t = 50 min): 190 nm; PDI ([5]; DNPs in 1% Serum, t = 60 min): 0.258; Size (nm) ([5]; DNPs in 1% Serum, t = 60 min): 194 nm; PDI [5, 8]: 0.273; Size (nm) [5, 8]: 196 nm
CCCCCCCCCOc1cc(COC(=O)CCCN2CCN(C)CC2)cc(OCCCCCCCCC)c1 [IAJD 77, 3,5-Bis(nonyloxy)benzyl 4-(4-methylpiperazin-1-yl)butanoate] | 2.44 × 10^6 p/s |  |  |  |  | 
CCCCC(CC)COc1cc(COC(=O)CCCN2CCN(C)CC2)cc(OCC(CC)CCCC)c1 (centres unmarked) [IAJD 76, 3,5-Bis((2-ethylhexyl)oxy)benzyl 4-(4-methylpiperazin-1-yl)butanoate] | 7.81 × 10^7 p/s |  |  |  |  | 
CCCCCCCCCCCCCCCCCCOc1cc(COC(=O)CCCN2CCN(C)CC2)cc(OCCCCCCCCCCCC)c1 [IAJD 107, 3-(Dodecyloxy)-5-(octadecyloxy)benzyl 4-(4-methylpiperazin-1-yl)butanoate] |  |  | 93,745 | 0.279 | 146 | 
CCCCCCCCCCCCCCCCOc1cc(COC(=O)CCCN2CCN(C)CC2)cc(OCCCCCCCCCCCC)c1 [IAJD 106, 3-(Dodecyloxy)-5-(hexadecyloxy)benzyl 4-(4-methylpiperazin-1-yl)butanoate] |  |  | 309 | 0.275 | 105 | 
CCCCCCCCCCCCCCOc1cc(COC(=O)CCCN2CCN(C)CC2)cc(OCCCCCCCCCCCCCC)c1 [IAJD 74, 3,5-Bis(tetradecyloxy)benzyl 4-(4-methylpiperazin-1-yl)butanoate] | 1.71 × 10^7 p/s | 1.71 × 10^7 p/s |  |  |  | 
CCCCC(CC)COc1cc(COC(=O)CCCN2CCN(CCO)CC2)cc(OCC(CC)CCCC)c1 (centres unmarked) [IAJD 87, 3,5-Bis((2-ethylhexyl)oxy)benzyl 4-(4-(2-hydroxyethyl)piperazin-1-yl)butanoate] | 3.24 × 10^7 p/s | 3.24 × 10^7 p/s |  |  |  | 
CCCCCCCCCCOc1cc(COC(=O)CCCN2CCN(CCO)CC2)cc(OCCCCCCCCCC)c1 [IAJD 91, 3,5-Bis(decyloxy)benzyl 4-(4-(2-hydroxyethyl)piperazin-1-yl)butanoate] | 9.94 × 10^6 p/s |  |  |  |  | 
